Laboratory results from paper PMC4801998 (2016).
Each block holds one compound with its values, some of them ahead of it.

Columns and labels:
[1] = tested on: 17B (DNA, single strand) GGGTTACTACGAACTGG; test: fluorescence light-switch, plate reader; details: 5 mM KCl, 95 mM LiCl; 10 mM lithium cacodylate, pH 7.2, 25 °C; about 0.1 µM PtTMPyP4, DNA:porphyrin 50:1; intensity ratio, not affinity
[2] = tested on: VEGF (DNA, G4) GGGAGGGTTGGGGTGGG; test: fluorescence light-switch, plate reader; details: 5 mM KCl, 95 mM LiCl; 10 mM lithium cacodylate, pH 7.2, 25 °C; about 0.1 µM PtTMPyP4, DNA:porphyrin 50:1; intensity ratio, not affinity
[3] = tested on: G4TERT (DNA, G4) AGGGGAGGGGCTGGGAGGGC; test: fluorescence light-switch, plate reader; details: 5 mM KCl, 95 mM LiCl; 10 mM lithium cacodylate, pH 7.2, 25 °C; about 0.1 µM PtTMPyP4, DNA:porphyrin 50:1; intensity ratio, not affinity
[4] = tested on: 17AB (DNA, duplex) CCAGTTCGTAGTAACCC/GGGTTACTACGAACTGG; test: fluorescence light-switch, plate reader; details: 5 mM KCl, 95 mM LiCl; 10 mM lithium cacodylate, pH 7.2, 25 °C; about 0.1 µM PtTMPyP4, DNA:porphyrin 50:1; intensity ratio, not affinity
[5] = tested on: G4T4G4 (DNA, G4) GGGGTTTTGGGG; test: fluorescence light-switch, plate reader; details: 10 mM lithium cacodylate, pH 7.2, 25 °C, about 0.1 µM PtTMPyP4, DNA:porphyrin 50:1, intensity ratio, not affinity
[6] = tested on: cMyc (DNA, G4) TGAGGGTGGGTAGGGTGGGTAA; test: fluorescence light-switch, plate reader; details: 5 mM KCl, 95 mM LiCl; 10 mM lithium cacodylate, pH 7.2, 25 °C; about 0.1 µM PtTMPyP4, DNA:porphyrin 50:1; intensity ratio, not affinity
[7] = tested on: Tel22 (DNA, G4) AGGGTTAGGGTTAGGGTTAGGG; test: fluorescence light-switch, plate reader; details: 10 mM lithium cacodylate, pH 7.2, 25 °C, about 0.1 µM PtTMPyP4, DNA:porphyrin 50:1, intensity ratio, not affinity
[8] = tested on: 26TelG4 (DNA, G4) AGGGGTTAGGGGTTAGGGGTTAGGGG; test: fluorescence light-switch, plate reader; details: 10 mM lithium cacodylate, pH 7.2, 25 °C, about 0.1 µM PtTMPyP4, DNA:porphyrin 50:1, intensity ratio, not affinity
[9] = tested on: 17A (DNA, single strand) CCAGTTCGTAGTAACCC; test: fluorescence light-switch, plate reader; details: 5 mM KCl, 95 mM LiCl; 10 mM lithium cacodylate, pH 7.2, 25 °C; about 0.1 µM PtTMPyP4, DNA:porphyrin 50:1; intensity ratio, not affinity
[10] = tested on: Tel22 (DNA, G4) AGGGTTAGGGTTAGGGTTAGGG; test: fluorescence titration, direct fit; details: 5 mM KCl, 95 mM LiCl; 10 mM lithium cacodylate, pH 7.2, 20 °C; 1.7-2.0 µM PtTMPyP4; equivalent sites
[11] = tested on: ds26 (DNA, duplex) CAATCGGATCGAATTCGATCCGATTG; test: fluorescence light-switch, plate reader; details: 5 mM KCl, 95 mM LiCl; 10 mM lithium cacodylate, pH 7.2, 25 °C; about 0.1 µM PtTMPyP4, DNA:porphyrin 50:1; intensity ratio, not affinity
[12] = tested on: cKit1 (DNA, G4) GGGAGGGCGCTGGGAGGAGGG; test: fluorescence light-switch, plate reader; details: 5 mM KCl, 95 mM LiCl; 10 mM lithium cacodylate, pH 7.2, 25 °C; about 0.1 µM PtTMPyP4, DNA:porphyrin 50:1; intensity ratio, not affinity
[13] = tested on: F21D (DNA, G4) GGGTTAGGGTTAGGGTTAGGG; test: FRET melting; details: 5 mM KCl, 95 mM LiCl; 10 mM lithium cacodylate, pH 7.2; 0.4 µM ligand, 0.2 µM F21D
[14] = tested on: Bcl-2 (DNA, G4) GGGCGCGGGAGGGAATTGGGCGGG; test: fluorescence light-switch, plate reader; details: 5 mM KCl, 95 mM LiCl; 10 mM lithium cacodylate, pH 7.2, 25 °C; about 0.1 µM PtTMPyP4, DNA:porphyrin 50:1; intensity ratio, not affinity
[15] = tested on: TBA (DNA, G4) GGTTGGTGTGGTTGG; test: fluorescence light-switch, plate reader; details: 10 mM lithium cacodylate, pH 7.2, 25 °C, about 0.1 µM PtTMPyP4, DNA:porphyrin 50:1, intensity ratio, not affinity
[16] = tested on: Tel22 (DNA, G4) AGGGTTAGGGTTAGGGTTAGGG; test: UV-Vis titration, direct fit; details: 5 mM KCl, 95 mM LiCl, 10 mM lithium cacodylate, stoichiometry fixed, equivalent sites

Fluorescence enhancement [1]: 43.9 ± 3.0 | Fluorescence enhancement [2]: 76.9 ± 3.8 | Fluorescence enhancement [3]: 85.7 ± 0.9 | Fluorescence enhancement [4]: 46.0 ± 0.7 | Fluorescence enhancement ([5]; 5 mM KCl, 95 mM LiCl): 42.2 ± 9.2 | Fluorescence enhancement ([5]; 50 mM NaCl, 50 mM LiCl): 40.5 ± 12 | Fluorescence enhancement [6]: 28.0 ± 5.0 | Fluorescence enhancement ([7]; 5 mM KCl, 95 mM LiCl): 71.8 ± 10 | Fluorescence enhancement ([7]; 50 mM NaCl, 50 mM LiCl): 54.2 ± 14.6 | Fluorescence enhancement ([8]; 5 mM KCl, 95 mM LiCl): 65.4 ± 4.8 | Fluorescence enhancement ([8]; 50 mM NaCl, 50 mM LiCl): 54.1 ± 15 | Fluorescence enhancement [9]: 38.1 ± 1.5 | binding constant [10]: (1.8 ± 0.3) × 10^6 M^-1 | Fluorescence enhancement [11]: 39.1 ± 5.2 | Fluorescence enhancement [12]: 28.0 ± 5.6 | ΔTm [13]: 30.7 ± 0.6 °C | Fluorescence enhancement [14]: 39.2 ± 5.7 | Fluorescence enhancement ([15]; 5 mM KCl, 95 mM LiCl): 29.5 ± 5.4 | Fluorescence enhancement ([15]; 50 mM NaCl, 50 mM LiCl): 32.6 ± 6.8 | binding affinity ([16]; pH 7.2, 20 °C): (5.8 ± 0.8) × 10^6 M^-1
Compound: C[n+]1ccc(-c2c3nc(c(-c4cc[n+](C)cc4)c4ccc([n-]4)c(-c4cc[n+](C)cc4)c4nc(c(-c5cc[n+](C)cc5)c5ccc2[n-]5)C=C4)C=C3)cc1.[Pt+2]

ΔTm [13]: 30.9 ± 0.4 °C | binding affinity ([16]; pH 7.2): (1.0 ± 0.3) × 10^7 M^-1
Compound: C[n+]1ccc(-c2c3nc(c(-c4cc[n+](C)cc4)c4ccc([n-]4)c(-c4cc[n+](C)cc4)c4nc(c(-c5cc[n+](C)cc5)c5ccc2[n-]5)C=C4)C=C3)cc1.[Pd+2]
